Results taken from ChEMBL document CHEMBL3507680, “University of Dundee, Gates Library screen for HepG2 cell viability”.

Experiment: Human HepG2 cell viability assay in 384 well format
Format: toxicity, cell-based
Design: dose 125 nL, time 70.5 hour; concentration not given beside the values
Settings: HepG2 cells, read-out: Inhibition

Row | Structure (SMILES) | cytotoxicity at 70.5 h [%]
1 | Cc1ccnc(NC(=O)c2cnc(C3CCCNC3)cn2)c1 (configuration not stated) | -4.33
2 | Nc1no[n+]([O-])c1C(=O)NCc1ccco1 | 7.08
3 | Cc1ccc(N2CC(c3nccc(C)n3)C2)nn1 | 9.5
4 | O=C(c1cc(-c2cccnc2)[nH]n1)N1CCCC(Cc2ccccn2)C1 (configuration not stated) | 9.07
5 | CS(=O)(=O)c1cncnc1C1CCCN(C(=O)NCc2ccccc2)C1 (configuration not stated) | -6.21
6 | CCc1nccn1CC(=O)Nc1cccc(N2CCCC2)c1 | 9.22
7 | CC(C)(C)c1ccc(OCC(=O)O)c(CN2C[C@H]3C[C@H](O)C[C@H]3C2)c1 | 2.38
8 | Cc1cc(C(=O)N2CCOCC2c2nc(C)c[nH]2)nc(O)n1 (configuration not stated) | 3.31
9 | CCN(Cc1cccnc1)CC1(C)Cc2c(N)nc(N)nc2O1 (configuration not stated) | -1.96
10 | CC(=O)N1CCC(c2nccnc2C)CC1 | -1.76
11 | CC(=O)N1CCCC1(C)c1nc(C)no1 (configuration not stated) | 0.978
12 | Cc1nccnc1C1CCN(C(=O)C(C)C)CC1 | -5.9
13 | CN1C[C@@H](c2cccc(F)c2)[C@H]2[C@H]1CCCCCN2C(=O)C1CC1 | 2.38
14 | CCC(=O)N1CCCCC[C@@H]2[C@@H]1[C@H](c1cccc(F)c1)CN2C | 16.4
15 | CCc1cc(C(F)(F)F)n2nc(C3CCCN3C(=O)COC)cc2n1 (configuration not stated) | -4.23
16 | Cn1nc(C2CC2)cc1C(=O)N1CCC(c2nnsc2S(C)(=O)=O)CC1 | -4.78
17 | O=C1NC2(CCc3ccccc31)CCN(Cc1cccnc1)C2 (configuration not stated) | 3.7
18 | Cc1ccc2c(c1)c(C)cc(=O)n2CC(=O)O | -2.86
19 | Cc1cc(C(F)(F)F)n2nc(C3CCCN(S(C)(=O)=O)C3)cc2n1 (configuration not stated) | -2.03
20 | O=C1NC2(CCN(C(=O)CN3CCOCC3)CC2)Nc2ccc(Cl)cc21 | -2.29
21 | Cc1c(CNC2CCN(c3ccccc3OC(F)F)C2)cnn1C (configuration not stated) | -3.92
22 | O=c1oc2ccccc2n1CCN(CC1CCOC1)C1CC1 (configuration not stated) | -11.1
23 | Cc1cc(C)n(Cc2cccc(C(=O)N3CCOCC3(C)C)c2)n1 | -10
24 | Cc1noc(CN2CCN(C(C)C(=O)NCc3cccs3)CC2)n1 (configuration not stated) | 13.6

Row | Structure (SMILES) | cytotoxicity at 70.5 h [%]
25 | CC(C)(C)n1ncc(NCc2ccccc2)c(Cl)c1=O | 22.2
26 | O=C(NCCNC(=O)C1CCN(c2ncccn2)CC1)c1ccoc1 | 6.55
27 | CC(C)CN1CCC(C(=O)NCCNC(=O)c2ccco2)CC1 | -5.07
28 | O=C(NCCNC(=O)C1CCN(CC(F)(F)F)CC1)c1ccoc1 | -4.81
29 | CN1CCN(C(=O)Cc2csc(-c3ccsc3)n2)C(c2ccccc2)C1 (configuration not stated) | -3.75
30 | CC(NCc1ccccn1)c1ccc(N2CCN(C)CC2)c(F)c1 (configuration not stated) | 11.1
31 | CC(C)NC(=O)CN(C)C(=O)c1c(Cl)c2ccccc2n1C | -0.0324
32 | CC(C)c1nc(CC(=O)N2CCN(C)CC2c2ccccc2)cs1 (configuration not stated) | 12.9
33 | CCC(Nc1ncccn1)c1ccc(OC)cc1 (configuration not stated) | 6.83
34 | N#Cc1ccc(S(=O)(=O)Nc2ccc(N3CCOCC3)cn2)cc1 | 0.03
35 | Cc1cnn(CC2CCN(CC(O)c3ccccc3F)CC2)c1 (configuration not stated) | 8.3
36 | N#Cc1cnn(C(=O)COc2ccccc2F)c1N | 1.04
37 | CN(C)CCOc1cc(NC(=O)COCC(F)(F)F)ccn1 | -2.8
38 | Cc1cc(C(F)(F)F)nc(N(C)Cc2c(C)noc2C)n1 | 13.3
39 | COCc1ccccc1C(=O)NS(=O)(=O)CCCC#N | -3.12
40 | Cc1cccc(CC(=O)NC2CCN(C(=O)NC(C)(C)C)CC2)c1 | 12.2
41 | Cc1cc(CN2CCN(C(C)C(=O)NCc3cccs3)CC2)no1 (configuration not stated) | -2.27
42 | Cc1cnn(CC2CCN(CC(O)CN3CCC(C)CC3)CC2)c1 (configuration not stated) | -4.29
43 | CC(C)NC(=O)CN(C)C(=O)c1c(Br)c2ccccc2n1C | -4.11
44 | COc1ccc(SC(C)C(=O)N2CCC(NC(=O)C3CC3)CC2)cc1 (configuration not stated) | 8.09
45 | Cc1noc(C)c1CN(C)c1nccc(C(F)(F)F)n1 | 4.31
46 | O=C(CCn1cncn1)NCC1CCOC1 (configuration not stated) | -6.75
47 | O=C(c1ccc(Oc2cccnc2)cc1)N1CCN(CCO)CC1 | -18.5
48 | Cc1cnc(CN2CCCCC2c2nc(-c3ccccc3)no2)cn1 (configuration not stated) | -7.59

Row | Structure (SMILES) | cytotoxicity at 70.5 h [%]
49 | O=C(Nc1cc(Cl)ccc1N1CCCCC1)c1ccccn1 | 7.77
50 | Cc1cc(C)cc(OCCNC(=O)C(C)Sc2nncn2C)c1 (configuration not stated) | -10.3
51 | O=C(c1cc(Br)c[nH]1)N1CCN(Cc2ccco2)CC1 | 5.49
52 | CC(C)CNC(=O)C[S+]([O-])Cc1csc(C2CCCCC2)n1 (configuration not stated) | -13
53 | CCC(CC(=O)NS(=O)(=O)C(C)C)c1ccccc1 (configuration not stated) | 11.1
54 | O=C(Nc1c(N2CCCC2)cccc1N1CCCC1)c1cnsn1 | -16
55 | CC(C)OCc1ccc(CNC(=O)NC2(CO)CCCC2)cc1 | -10.3
56 | CC(C)Oc1cccc(CNC(=O)NC2(CO)CCCC2)c1 | -11.2
57 | Cc1noc(C)c1CN1CCCCC1c1nc(-c2ccccc2)no1 (configuration not stated) | -9.69
58 | COCCN(Cc1ccccn1)C(=O)CC1OCCc2ccsc21 (configuration not stated) | -1.83
59 | CCCc1nn(Cc2csc(CC)n2)c(=O)o1 | -4.3
60 | Cc1cc(C2CCCN2C(=O)COc2ccc(CC#N)cc2)on1 (configuration not stated) | -9.16
61 | COc1ccc2c(c1)CC(NCc1cccc(OCC(N)=O)c1)CC2 (configuration not stated) | -10.5
62 | Cn1cc(-c2noc(C3(C)CCOCC3)n2)cn1 | 11.7
63 | COc1ccc(C2(c3nc(-c4cccnc4)no3)CCOCC2)cc1 | 34.4
64 | CC(NC(=O)c1cnccn1)c1nnc2ccccn12 (configuration not stated) | -4.81
65 | Cc1ccc(CN(Cc2cc(=O)n3cccc(C)c3n2)C(C)C)o1 | -14.3
66 | Cc1ncc2c(n1)CCN(Cc1ncc(C(C)(C)C)o1)C2 | -11.4
67 | CC(=O)N(C)CC(=O)Nc1cc(C(F)(F)F)c[nH]c1=O | -12.8
68 | CCCC(NC(=O)c1cnccn1)c1nnc2ccccn12 (configuration not stated) | -11
69 | CN(CCc1ccccn1)C(=O)Nc1cc(C(F)(F)F)c[nH]c1=O | 8.07
70 | COc1cccc(N2CCN(C(=O)c3ccc(=O)n(C)c3)CC2)c1 | -3.95
71 | Cn1cnc2c1CCN(c1ccnc(-c3ccccc3)n1)C2 | -18.3
72 | Cc1nc(C(NC(=O)c2cc(C(C)C)[nH]n2)c2ccccc2)n[nH]1 (configuration not stated) | -11.7

Row | Structure (SMILES) | cytotoxicity at 70.5 h [%]
73 | CC(NC(=O)c1cc(C(C)C)[nH]n1)C(=O)Nc1ccccc1 (configuration not stated) | -6.22
74 | Cc1ccc2c(c1C)OCC2NCc1cccc(C#N)c1 (configuration not stated) | 1.34
75 | Cc1cnn(-c2ccc(S(=O)(=O)N(C)CC(F)F)cc2F)c1 | -8.45
76 | O=C(CCNc1ccc(Br)cn1)NCc1ccncc1 | 0.0133
77 | O=C(CCNc1ccc(Cl)cn1)NCc1ccncc1 | -8.13
78 | CC(C)c1ncc(C(=O)N(C)c2ccc(Br)cn2)s1 | 5.45
79 | CCc1c(NCc2cccnc2)cnn1CC(C)C | -5.5
80 | CCOc1cccc(CNc2cnn(CC(C)C)c2CC)c1 | -7.62
81 | CC(C)Oc1ccc(NCc2ccc([S+](C)[O-])cc2)c(F)c1 (configuration not stated) | 7.01
82 | CN(CC(=O)NCC(CCO)c1ccccc1)C(=O)OC(C)(C)C (configuration not stated) | 27.5
83 | COc1cccc2c1N(CC(=O)Nc1ccc(Cl)cn1)CCC2 | 0.717
84 | CCn1cc(C(=O)NCC(C)(CC)N2CCOCC2)c2ccccc21 (configuration not stated) | 5.27
85 | CCCn1nc(C(=O)NCc2nnc3n2CCC3)ccc1=O | 22.5
86 | CC(C)(C)NC(=O)c1cnc(C(C)(C)C)s1 | 3.79
87 | O=C1NCCCCC1NC(=O)C1(c2cccc(Cl)c2)CC1 (configuration not stated) | -0.123
88 | CCn1cc(C(=O)NCC2(C(N)=O)CCOCC2)c2ccccc21 | 0.306
89 | CC(Oc1ccc(F)c(F)c1)C(=O)N(CC(N)=O)C1CCCC1 (configuration not stated) | 27.6
90 | O=C1NCCCCC1NC(=O)C1(c2ccccc2)CCOCC1 (configuration not stated) | -1.6
91 | C=C(C)CN(CC)C(=O)c1cc(F)ccc1NS(C)(=O)=O | -0.0565
92 | C=C(C)CN(CC)C(=O)c1cc(C)ccc1NS(C)(=O)=O | 3.16
93 | O=C(NCc1cccc(F)c1)c1cccc(C(=O)N2CCCC2)n1 | 3.72
94 | CCN(C)c1ccc(CNC(=O)CCn2cc(C)cn2)cc1F | -1.28
95 | O=C(OCCNc1ncccn1)c1ccc(Cl)s1 | -3.07
96 | CN(Cc1nnc2n1CCC2)C(=O)c1ccc(=O)n(C)n1 | 4.72

Row | Structure (SMILES) | cytotoxicity at 70.5 h [%]
97 | O=C(OCc1cccc(F)c1)c1cccc(C(=O)N2CCCC2)n1 | -1.08
98 | COc1ccc(CCNC(=O)C2CCCOC2)c(Cl)c1 (configuration not stated) | 3.61
99 | Cc1cc(C)n(C2CCCN(C(=O)c3ccnc(N(C)C)c3)C2)n1 (configuration not stated) | -0.851
100 | CN(CC(=O)N1CCCC(n2ccnc2)C1)c1cnccn1 (configuration not stated) | -1.54
101 | Cc1nnc(CN2CCCC2c2ccc3c(c2)OCCCO3)n1C (configuration not stated) | -5.99
102 | Cn1c(Cl)cnc1CN1CCCC1c1ccc2c(c1)OCCO2 (configuration not stated) | 19.4
103 | O=C1CCCCN1CCCNCc1cnc(C2CCC2)s1 | 0.195
104 | CC(CCN1CCCC1=O)NCc1cnc(C2CCC2)s1 (configuration not stated) | -6.2
105 | COc1cccc(-c2cc(NCc3nc(C)cs3)n(C)n2)c1 | -9.85
106 | COc1cccc(-c2cc(NCc3nccn3C)n(C)n2)c1 | -6.65
107 | Cc1nnc(C(C)N2CCN(Cc3noc(C(C)(C)C)n3)CC2)o1 (configuration not stated) | -3.37
108 | COc1cc2c(cc1CNCc1cccnc1OC)OC(C)C2 (configuration not stated) | -8.84
109 | Cc1cnn(C2CCCN(C(=O)c3cc[nH]n3)C2)c1 (configuration not stated) | -5.43
110 | O=C(O)C1(Cc2ccc(-c3cccs3)cc2)CCNC1 (configuration not stated) | -2.56
111 | COc1cc2c(cc1CNC(Cc1cccs1)c1nccs1)OCO2 (configuration not stated) | 18.9
112 | Cc1cc2c(cc1CNC(Cc1cccs1)c1nccs1)OCO2 (configuration not stated) | 1.05
113 | Cc1ccc(CNC(C)c2ccc(N3CCN(C)CC3)c(F)c2)o1 (configuration not stated) | 0.0517
114 | CC(C)(CN)NS(=O)(=O)c1cccc(F)c1F | 9.16
115 | Cc1c(F)cccc1S(=O)(=O)NC(C)(C)CN | -3.29
116 | CC(NCc1ccncc1)c1ccc(N2CCN(C)CC2)c(F)c1 (configuration not stated) | 4.11
117 | Cc1nc(Nc2nncs2)cc(C2CNC2)n1 | -5.34
